Test results published in patent US6613317B1, “Volatile attractants for diabrotica species” (priority 1988, dated 2003).
Marks after values point to notes of the source that are not given here.

Experiments:
[1] = system: southern corn rootworm (SCR) adults; experiment: Sticky trap attraction in sweet corn plots (Example 1); assay type: in vivo, Diabrotica undecimpunctata howardi; details: for Mean number of SCR per trap (±standard deviation): n = 4
In short: (§1)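 Field trapping in sweet-corn plots beside a Blue Hubbard squash trap crop; lures on mineral-oil-impregnated cotton wicks atop sticky paper-carton traps on 1-m posts, 4 replicates in randomized complete blocks. Beetles counted after 24 h; VIPAE/VIP/TIC mixtures and single components at 1–300 mg per trap, ANOVA/Duncan at P=0.05.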

[2] = system: western corn rootworm (WCR) adults; experiment: as above; assay type: in vivo, Diabrotica virgifera virgifera; details: for Mean number of WCR per trap (±standard deviation): n = 4
In short: as §1

D. u. howardi adults = assay type: in vivo, Diabrotica undecimpunctata howardi; details: TEX×PEP bait with 0.1% methomyl alone or with 1% veratrole added
Description: A noncucurbit carrier, 10-mesh corn grits (71% of which passed through a 2-mm screen), was obtained from Illinois Cereal Mills, Paris, Ill. (designated as pesticide carrier grits, 980). This carrier was impregnated with different levels of cucurbitacins by addition of varying amounts of a chloroform extract of AND×MAX fruit containing 0.12% cucurbitacins B and D (Metcalf, et al., Proc. Natl. Acad. Sci. USA, 77:3769-3772 (1980), Metcalf, et al., Environ. Entomol., 11:921-927 (1982)). The cucurbitacin-containing areas were scraped from plates, extracted in anhydrous methanol, centrifuged, and the UV absorption at 210 nm determined by UV spectrophotometry. Content of cucurbitacins was quantified from standard curves of pure cucurbitacins B, D, E and I, and E-glycoside (Metcalf, et al., Proc. Natl. Acad. Sci. USA, 77:3769-3772 (1980), Metcalf, et al., Environ. Entomol., 11:921-927 (1982)).
The various dried, ground, and insecticide-treated baits were given preliminary field evaluation by placing uniform amounts in petri-dish halves (150-mm diameter) that were placed at random on the ground in cucurbit and corn rows heavily infested ith SCR, WCR, and SCB adults. Ten dishes were used for each treatment; the maximum dosage of dried baits used was 300 mg per dish, equivalent to […]. Mortality counts of adult beetles in the dishes were made after 20-40 h.

D. barberi [3] = experiment: Sticky trap attraction in prairie habitat, Trelease Woods (Example 2); assay type: in vivo, Diabrotica barberi; details: August 11, 1987; 100 mg per trap; n = 4
In short: (§2)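 Lure-dosed cotton wicks (solids in acetone; untreated controls) on TangleTrap-coated cartons atop 1 m posts, four replicates 10 m apart in relict prairie, mid-August over two years. Read-out: mean beetles caught after 24-h; log-transformed ANOVA with Duncan's multiple range test.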

D. cristata = experiment: as above; assay type: in vivo, Diabrotica cristata; details: August 11, 1987; 100 mg per trap; n = 4
In short: as §2

D. v. virgifera [4] = experiment: as above; assay type: in vivo, Diabrotica virgifera virgifera; details: August 11, 1987; 100 mg per trap; n = 4
In short: as §2

D. u. howardi [5] = experiment: as above; assay type: in vivo, Diabrotica undecimpunctata howardi; details: August 11, 1987; 100 mg per trap; n = 4
In short: as §2

D. barberi [6] = experiment: Sticky trap attraction along hybrid corn, Pomology South Farms (Example 2); assay type: in vivo, Diabrotica barberi; details: 100 mg per trap, n = 4
Description: (§3) The candidate lures in all experiments were purchased commercially and exceeded 98% purity. The test chemicals were applied by capillary micropipettes to cotton dental wicks which were attached to the tops of 1.0 liter cylindrical paper cartons covered with TangleTrap™ (Tanglefoot Co., Grand Rapids, Mich.). The sticky trap techniques used were as described in Example 1. Cinnamyl alcohol and para-methoxycinnamaldehyde, which are solids, were dissolved in glass-distilled acetone prior to dosing the cotton wicks. All treatments were applied at a dosage of 100 mg per trap. 1,2,4-trimethoxybenzene, indole, and trans-cinnamaldehyde were mixed in a ratio of 1:1:1, by weight, immediately prior to dosing the cotton wicks. Control traps had untreated cotton wicks. Four replicates of treated and untreated traps were randomly positioned 10 meters apart on top of 1 m high posts along the border of a eight foot wide strip cut through the middle of a 4.05 ha relict prairie at Trelease Woods (ca. two miles northeast of Urbana, Ill.). The field consisted primarily of Andropogon gerardii Vitman (big bluestem) and a variety of composites. The tests were conducted in mid-August of two years and were timed to coincide with the presence of D. cristata and D. barberi adults in the flower heads of Canada thistle (Carduus arvensis Robson). In the second year, several new attractants of D. v. virgifera and D. barberi were tested in Trelease Woods and along the edge of a 0.8 ha field of hybrid corn located at the Pomology South Farms, Urbana, Ill. Attraction of Diabrotica species to the various lures was measured by the mean number of beetles caught after 24-h. On one date in late August of the first year, D. cristata and D. barberi were removed from the traps and sexed in the laboratory. The significance of treatments in all tests was determined by an analysis of variance and the individual means were separated by Duncan's multiple range test (Statistical Package for Social Science, Nie, et al., SPSS: statistical package for the social sciences, 2nd ed. McGraw-Hill, New York (1975). Data were logarithmically transformed for statistical analysis and the means and standard deviations are presented for the untransformed data.

D. v. virgifera [7] = experiment: as above; assay type: in vivo, Diabrotica virgifera virgifera; details: 100 mg per trap, n = 4
Description: as §3

D. u. howardi [8] = experiment: as above; assay type: in vivo, Diabrotica undecimpunctata howardi; details: 100 mg per trap, n = 4
Description: as §3

[9] = system: western corn rootworm (WCR) adults; experiment: Sticky trap attraction in corn, estragole analogues (Example 3); assay type: in vivo, Diabrotica virgifera virgifera; details: for Mean number of WCR adults per sticky trap (±standard deviation) after 24 hours / Mean number of WCR (±standard deviation) per sticky trap after 24 hours: 100 mg per trap, n = 4
In short: (§4)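 Cotton wicks dosed with 100 mg or 100 μL attractant per trap on TangleTrap-coated cartons, four replicates 10 m apart on 1 m posts at field edges of hybrid or sweet corn. Mean beetles caught after ~24 h; log-transformed ANOVA with Duncan's test, P=0.05.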

[10] = system: southern corn rootworm (SCR) adults; experiment: as above; assay type: in vivo, Diabrotica undecimpunctata howardi; details: 100 mg per trap, n = 4
In short: as §4

[11] = system: northern corn rootworm (NCR) adults; experiment: as above; assay type: in vivo, Diabrotica barberi; details: 100 mg per trap, n = 4
Description: (§5) Test chemicals were applied by capillary micropipettes to cotton dental wicks that were attached to tops of 1.0 liter cylindrical paper cartons covered with TangleTrap™, Grand Rapids, Mich. The trapping techniques used were as previously described in Example 1. Cinnamyl alcohol, 4-methoxycinnamaldehyde, cinnamyl acetate, and 4-(4′methoxyphenyl)-3-butene-2-one which are solids at ambient temperature were prepared as standard w/v solutions in acetone prior to dosing the cotton wicks. All treatments were made at a dosage of 100 mg or 100 μL of attractant per trap. Control traps had untreated wicks. Four replicates of treated and untreated traps were positioned randomly 10 meters apart on top of 1 m high posts along the edges of 25-50 ha. fields of hybrid corn (Zea mays), infested with adult NCR, SCR, and WCR beetles. Several experiments detailed in the Tables were made in a 0.4 ha plot of sweet corn (Illini X-tra Sweet).
(§6) Attraction of Diabrotica species adults of the sticky traps was measured by the mean number of beetles caught after 1 day (ca. 24 hours) exposure. The significance of the treatments was determined by analysis of variance and the individual means were separated by Duncan's multiple range test (Statistical Package for the Social Sciences, Nie, et al., 2nd. ed. McGraw-Hill, New York (1975). The data was logarithmically transformed for statistical analysis. Means and standard deviations are presented for the untransformed data. Significance levels were set at P=0.05 for all statistical analyses.

[12] = system: northern corn rootworm (NCR); experiment: Sticky trap attraction in corn, phenylethanol analogues (Example 6); assay type: in vivo, Diabrotica barberi; details: 100 mg per trap, four replicates, 24 hour
Description: as §5, with “chemicals (purchased from Aldrich Chemical Co.; Milwaukee, Wis.)” for “chemicals”, “Unless otherwise indicated, all” for “Cinnamyl alcohol, 4-methoxycinnamaldehyde, cinnamyl acetate, and 4-(4′methoxyphenyl)-3-butene-2-one which are solids at ambient temperature were prepared as standard w/v solutions in acetone prior to dosing the cotton wicks. All”
as §6

[13] = system: western corn rootworm (WCR); experiment: as above; assay type: in vivo, Diabrotica virgifera virgifera; details: 100 mg per trap, four replicates, 24 hour
Description: as §5, with “chemicals (purchased from Aldrich Chemical Co.; Milwaukee, Wis.)” for “chemicals”, “Unless otherwise indicated, all” for “Cinnamyl alcohol, 4-methoxycinnamaldehyde, cinnamyl acetate, and 4-(4′methoxyphenyl)-3-butene-2-one which are solids at ambient temperature were prepared as standard w/v solutions in acetone prior to dosing the cotton wicks. All”
as §6

WCR = details: in vivo; cited from earlier work
[14] = August 4, second year, each compound 20 mg per trap
[15] = August 7, second year, each compound 20 mg per trap
[16] = August first year, South Farms, 24 h, single compounds 100 mg per trap, mixture 20 mg of each component
[17] = August first year, single compounds 100 mg per trap, mixture 20 mg each component

SMILES: COc1ccccc1OC [Veratrole, 1,2-dimethoxybenzene]
- relative percent activity (SCR) as compared with the highest mean value for the test date [1, 14]: 15%
- Mean number of SCR per trap (±standard deviation) [1, 14]: 5.8 ± 3.4 per trap
- relative percent activity (SCR) as compared with the highest mean value for the test date [1, 15]: 20%
- Mean number of SCR per trap (±standard deviation) [1, 15]: 8.8 ± 2.l
- Mean number of SCR per trap (±standard deviation) [1, 16]: 6.8 ± 3.6 per trap
- relative percent activity of the mean SCR trap catch as compared with the highest mean value in the column [1, 17]: 33%
- relative percent activity (WCR) as compared with the highest mean value for the test date [2, 14]: 39%
- Mean number of WCR per trap (±standard deviation) [2, 14]: 20.0 ± 5.7 per trap
- relative percent activity (WCR) as compared with the highest mean value for the test date [2, 15]: 59%
- Mean number of WCR per trap (±standard deviation) [2, 15]: 18.5 ± 7.2 per trap
- Mean number of WCR per trap (±standard deviation) [2, 16]: 1.5 ± 1.0 per trap
- relative percent activity of the mean WCR trap catch as compared with the highest mean value in the column [2, 17]: 22%
- mean (±SD) dead SCR beetles for 10 dishes (D. u. howardi adults): 63.1±39.9

SMILES: COc1ccc(C=CC=O)cc1 [XI, 4-methoxycinnamaldehyde]
- Mean number of D. barberi per day (±standard deviation) (D. barberi [3]): 1.0 ± 0.8^a per day
- Mean number of D. cristata per day (±standard deviation) (D. cristata): 11.0 ± 6.7^b per day
- Mean number of D. v. virgifera per day (±standard deviation) (D. v. virgifera [4]): 8.5 ± 5.3^b per day
- Mean number of D. u. howardi per day (±standard deviation) (D. u. howardi [5]): 0.3 ± 0.5^a per day
- Mean number of D. barberi per stick trap per day (±standard deviation) in corn (D. barberi [6]; August 7): 0.3 ± 0.5^a per stick trap per day
- Mean number of D. barberi per stick trap per day (±standard deviation) in corn (D. barberi [6]; August 18): 1.0 ± 0.8^a per stick trap per day
- Mean number of D. v. virgifera per stick trap per day (±standard deviation) in corn (D. v. virgifera [7]; August 7): 375.0 ± 50.0^d per stick trap per day
- Mean number of D. v. virgifera per stick trap per day (±standard deviation) in corn (D. v. virgifera [7]; August 18): 178.8 ± 32.0^c per stick trap per day
- Mean number of D. u. howardi per stick trap per day (±standard deviation) in corn (D. u. howardi [8]; August 7): 1.5 ± 2.4^a per stick trap per day
- Mean number of D. u. howardi per stick trap per day (±standard deviation) in corn (D. u. howardi [8]; August 18): 0.0^a per stick trap per day
- period over which treated wicks remained highly attractive to WCR ([9]; 100 mg on wick, transferred daily to fresh traps, August sunlight, two heavy rainstorms): ≥ 16 days
- Mean number of WCR adults per sticky trap (±standard deviation) after 24 hours ([9]; August 4 second year): 204.7 ± 34.6^e per sticky trap
- Mean number of WCR adults per sticky trap (±standard deviation) after 24 hours ([9]; August 5 first year): 143.7 ± 75.3^e per sticky trap
- Mean number of WCR (±standard deviation) per sticky trap after 24 hours ([9]; August 7 (Table 11)): 375.0 ± 50.0^c per sticky trap
- Mean number of WCR (±standard deviation) per sticky trap after 24 hours ([9]; August 18 (Table 11)): 178.7 ± 31.9^b per sticky trap
- Mean number of WCR adults per sticky trap (±standard deviation) after 24 hours ([9]; September 11): 22.2 ± 23.1^b per sticky trap
- effectiveness relative to previously described WCR attractants (indole, estragole) ([9]; by LR): about 100 fold
- limit of response (LR) for attraction of WCR adults in corn ([9]; on cotton wicks, logarithmically decreasing amounts): ~0.03 mg
- Mean number of SCR adults per sticky trap (±standard deviation) after 24 hours ([10]; August 4 second year): 9.0 ± 6.5^b per sticky trap
- Mean number of SCR adults per sticky trap (±standard deviation) after 24 hours ([10]; August 5 first year): 42.7 ± 27.6^b per sticky trap
- Mean number of SCR (±standard deviation) per sticky trap after 24 hours ([10]; August 7 (Table 11)): 1.5 ± 2.4^a per sticky trap
- Mean number of SCR (±standard deviation) per sticky trap after 24 hours ([10]; August 18 (Table 11)): 0.0^a per sticky trap
- Mean number of SCR adults per sticky trap (±standard deviation) after 24 hours ([10]; September 11): 1.5 ± 1.3^ab per sticky trap
- Mean number of NCR (±standard deviation) per sticky trap after 24 hours ([11]; August 7 (Table 11)): 0.0^a per sticky trap
- Mean number of NCR (±standard deviation) per sticky trap after 24 hours ([11]; August 18 (Table 11)): 1.0 ± 0.8^a per sticky trap
- Mean number of NCR per trap (± standard deviation) ([12]; Table 15): 6.4 ± 4.9a per trap
- Mean number of NCR per trap (± standard deviation) ([12]; Table 17): 2.5 ± 1.9a per trap
- Mean number of WCR per trap (±standard deviation) ([13]; Table 15): 567.5 ± 111.6b per trap
- Mean number of WCR per trap (± standard deviation), column WCW ([13]; Table 17): 360.2 ± 181.3c per trap
- LR for WCR, most effective volatile attractants yet identified (WCR): 0.03 mg
